From PubChem BioAssay (NCI)
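Each compound was tested at five concentrations against cells in 96-well plates for 48 hours. TGI marks complete inhibition of growth.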

How the values were obtained:
Assay in all cases: NCI tumour cell line growth inhibition, 48 h
[1] = system: 786-0 renal
[2] = system: A498 renal
[3] = system: A549 NSCLC
[4] = system: ACHN renal
[5] = system: CCRF-CEM leukemia
[6] = system: DLD-1 colon
[7] = system: DMS 114 small cell lung
[8] = system: DMS 273 small cell lung
[9] = system: HCC-2998 colon
[10] = system: HCT-116 colon
[11] = system: HCT-15 colon
[12] = system: HL-60(TB) leukemia
[13] = system: HOP-18 NSCLC
[14] = system: HT29 colon
[15] = system: IGROV1 ovarian
[16] = system: K-562 leukemia
[17] = system: KM12 colon
[18] = system: LOX IMVI melanoma
[19] = system: LXFL 529 NSCLC
[20] = system: M14 melanoma
[21] = system: M19-MEL melanoma
[22] = system: MALME-3M melanoma
[23] = system: MOLT-4 leukemia
[24] = system: NCI-H226 lung
[25] = system: NCI-H460 lung
[26] = system: NCI-H522 lung
[27] = system: OVCAR-3 ovarian
[28] = system: OVCAR-4 ovarian
[29] = system: OVCAR-8 ovarian
[30] = system: RXF 393 renal
[31] = system: SF-268 CNS
[32] = system: SF-539 CNS
[33] = system: SK-MEL-2 melanoma
[34] = system: SK-MEL-28 melanoma
[35] = system: SK-MEL-5 melanoma
[36] = system: SK-OV-3 ovarian
[37] = system: SN12C renal
[38] = system: SNB-19 CNS
[39] = system: SNB-75 CNS
[40] = system: SNB-78 CNS
[41] = system: TK-10 renal
[42] = system: U251 CNS
[43] = system: UACC-257 melanoma
[44] = system: UACC-62 melanoma
[45] = system: UO-31 renal
[46] = system: XF 498 CNS
[47] = system: CAKI-1 renal
[48] = system: COLO 205 colon
[49] = system: EKVX NSCLC
[50] = system: HOP-62 NSCLC
[51] = system: HOP-92 NSCLC
[52] = system: KM20L2 colon
[53] = system: NCI-H23 lung
[54] = system: OVCAR-5 ovarian
[55] = system: RXF-631 renal
[56] = system: SF-295 CNS
[57] = system: SR leukemia
[58] = system: SW-620 colon

**Q.** Which results are given for `CC(Oc1ccc(OCC2CCCCC2)cc1)C(=O)NCc1ccco1` (centres undefined)?
**A.** TGI [1]: > 100 µM; TGI [2]: 86.7 µM; TGI [3]: > 100 µM; TGI [4]: > 100 µM; TGI [5]: > 100 µM; TGI [6]: > 100 µM; TGI [7]: 56.6 µM; TGI [8]: 94.1 µM; TGI [9]: > 100 µM; TGI [10]: 76.3 µM; TGI [11]: > 100 µM; TGI [12]: > 100 µM; TGI [13]: > 100 µM; TGI [14]: 46.6 µM; TGI [15]: > 100 µM; TGI [16]: > 100 µM; TGI [17]: > 100 µM; TGI [18]: 54.3 µM; TGI [19]: > 100 µM; TGI [20]: 42.6 µM; TGI [21]: > 100 µM; TGI [22]: 58.7 µM; TGI [23]: > 100 µM; TGI [24]: 94 µM; TGI [25]: > 100 µM; TGI [26]: 35.3 µM; TGI [27]: > 100 µM; TGI [28]: > 100 µM; TGI [29]: > 100 µM; TGI [30]: 71.4 µM; TGI [31]: > 100 µM; TGI [32]: 88.1 µM; TGI [33]: 59.3 µM; TGI [34]: > 100 µM; TGI [35]: 31.4 µM; TGI [36]: > 100 µM; TGI [37]: > 100 µM; TGI [38]: > 100 µM; TGI [39]: > 100 µM; TGI [40]: > 100 µM; TGI [41]: > 100 µM; TGI [42]: > 100 µM; TGI [43]: 70.4 µM; TGI [44]: > 100 µM; TGI [45]: 92.3 µM; TGI [46]: > 100 µM

**Q.** Which results are given for `CCCCCCCCC/C=C1\CCC(CN(C)C)C1=O` (centres undefined)?
**A.** TGI [1]: 0.963 µM; TGI [2]: 6.4 µM; TGI [3]: 18 µM; TGI [4]: 4.98 µM; TGI [47]: 4.99 µM; TGI [5]: 4.82 µM; TGI [48]: 5.37 µM; TGI [6]: 4.28 µM; TGI [7]: 4.87 µM; TGI [8]: 3.25 µM; TGI [49]: 4.81 µM; TGI [9]: 10.5 µM; TGI [10]: 3.67 µM; TGI [11]: 4.66 µM; TGI [12]: 5.31 µM; TGI [50]: 4.32 µM; TGI [51]: 4.39 µM; TGI [14]: 3.16 µM; TGI [15]: 6.53 µM; TGI [16]: 7.53 µM; TGI [17]: 3.84 µM; TGI [52]: 4.66 µM; TGI [18]: 2.59 µM; TGI [19]: 2.64 µM; TGI [20]: 3.57 µM; TGI [21]: 3.87 µM; TGI [22]: 12.6 µM; TGI [23]: 8.49 µM; TGI [24]: 23.9 µM; TGI [53]: 5.61 µM; TGI [25]: 12.5 µM; TGI [26]: 4.78 µM; TGI [54]: 28 µM; TGI [29]: 3.11 µM; TGI [55]: 4.53 µM; TGI [31]: 3.71 µM; TGI [56]: 12.7 µM; TGI [32]: 3.18 µM; TGI [33]: 6.42 µM; TGI [34]: 4.28 µM; TGI [35]: 3.9 µM; TGI [36]: 32 µM; TGI [37]: 4.34 µM; TGI [38]: 18.1 µM; TGI [39]: 6.28 µM; TGI [40]: 5.03 µM; TGI [57]: 6.77 µM; TGI [58]: 3.08 µM; TGI [41]: 4.53 µM; TGI [42]: 3.02 µM; TGI [43]: 3.52 µM; TGI [44]: 5.73 µM; TGI [45]: 4.04 µM
